Laboratory results published in patent US20160230227A1, “METHODS OF TREATING ALZHEIMER'S DISEASE” (THE NEW YORK STEM CELL FOUNDATION, priority 2012, published 2016).

Experiments:
γ-secretase = target: T1, γ-secretase (Homo sapiens, UniProt P49768); assay: Aβ production in conditioned media by ELISA; assay type: cell-based; conditions: 10 μM, control and PS1 cells
T1 construct: endogenous in cells

[1] = cited from earlier work
Na+ channels = assay type: cell-based, human
7889O neurons = assay type: cell-based, human
[2] = tested on: adult SVZ neural progenitor cells; assay: Primary neurosphere formation of adult SVZ progenitors; assay type: cell-based; conditions: eight-week old mice, in the presence of EGF and FGF, 10 days in vitro, p=0.04
Experimental: (§1) This supports a potential pro-neurogenic role for NDP in adult neurogenesis.
Adult FVB/N mice were killed by cervical dislocation (n=3 per preparation) and their brains removed and placed into Pipes buffer (20 mM Pipes, 25 mM glucose, 0.12M NaCl, 0.5 mM KCl [ph 7.4]). The lateral walls of the lateral ventricles were dissected, collected in Pipes buffer and incubated in a mixture containing 1.2 mL of activated papain and 8.8 ml of Pipes buffer. Papain was activated 20 min in advance by placing 3 mg of papain (Worthington Biochemical) in 1 ml of 1.1 mM EDTA, 5.5 mM cysteine HCl. The pieces of tissue were incubated in papain solution at 37° C. on a rocking platform for 10 min and collected by centrifugation at 1300 rpm for 5 min. The cellular pellet was resuspended in 1 ml of DMEM-F12 (GIBCO) containing 0.7 mg of ovomucoid inhibitor and 1 mg of DNase. The cells were dissociated and neural precursor cells were separated from differentiated cells, myelin and extracellular matrix using density gradient separation by centrifugation step with 22% Percoll. […] The cells were counted and plated in 96well-low attachment plate (Corning) (1.5×10^5/mL) in the same medium containing 10 ng/mL of EGF receptor grade (Millipore) and 10 ng/mL human bFGF (Invitrogen). […] The numbers of neurospheres were counted for six 40× fields/well after 10 days in vitro. […]

human iPSC-derived NPCs = assay: Proliferation of iPSC-derived NPCs (ki67 staining); assay type: cell-based; conditions: d14 NPCs; data not shown
Text: as §1

C[C@H](NC(=O)Cc1cc(F)cc(F)c1)C(=O)N[C@H](C(=O)OC(C)(C)C)c1ccccc1 [DAPT]
Aβ production (γ-secretase): sufficient to block | Aβ production (γ-secretase; listed as DapT): blocks

CC12CC3CC(C)(C1)CC(N)(C3)C2 [Memantine]
reported adverse events ([1]; in vivo): infrequent and mild | efficacy in treatment ([1]; moderate to severe Alzheimer's disease): moderately efficacious

NC1=N[C@H](O)[C@H]2[C@H]3O[C@]4(O)O[C@@H]([C@@H](O)[C@@]2(N1)[C@@H]4O)[C@]3(O)CO [TTX, tetrodotoxin]
action potentials (Na+ channels): blocked | inward currents (Na+ channels): blocked | kinetics of remaining Ca2+ transients (7889O neurons): generally slower

recombinant norrin: recombinant Norrin protein (R&D systems), product of NDP; secreted molecule activating canonical Wnt signaling via Frizzled-4
proliferation as measured by primary neurosphere formation [2]: increased proliferation | proliferation as measured by primary neurosphere formation ([2]; listed as recombinant Norrin protein): induces proliferation | proliferation (ki67 staining) (human iPSC-derived NPCs): did not show differences in proliferation

tetraethylammonium [TEA]
long lasting outward current after the fast inward current (K+ channels): cancelled
